tested on: glucose-6-phosphatase; assay: not given; conditions: described in the literature; cited from earlier work

Structure (SMILES)	non-specific inhibitor of glucose-6-phosphatase (in words)
S=C=Nc1ccccc1C=Cc1ccccc1N=C=S [2,2'-diisothiocyanatostilbene]	non-specific inhibitors of glucose-6-phosphatase
CC(=O)Oc1ccccc1C=Cc1ccccc1N=C=S [2-isothiocyanato-2'-acetoxystilbene]	non-specific inhibitors of glucose-6-phosphatase
O=C(O)c1cc(SSc2ccc([N+](=O)[O-])c(C(=O)O)c2)ccc1[N+](=O)[O-] [5,5'-dithiobis-2-nitrobenzoic acid]	non-specific inhibitors of glucose-6-phosphatase
O=C(CCc1ccc(O)cc1)c1c(O)cc(O)cc1O[C@@H]1O[C@H](CO)[C@@H](O)[C@H](O)[C@H]1O [phlorhizin]	non-specific inhibitors of glucose-6-phosphatase

biological target: T1, glucose-6-phosphatase system (Rattus norvegicus, UniProt F7EWB7); assay: glucose-6-phosphatase enzyme test in liver microsomes (phosphate released from glucose-6-phosphate); type: biochemical, male Wistar rats; conditions: not given
T1 construct: from tissue; host or cells: liver microsomes of male Wistar rats
T1 sequence (F7EWB7 1-429): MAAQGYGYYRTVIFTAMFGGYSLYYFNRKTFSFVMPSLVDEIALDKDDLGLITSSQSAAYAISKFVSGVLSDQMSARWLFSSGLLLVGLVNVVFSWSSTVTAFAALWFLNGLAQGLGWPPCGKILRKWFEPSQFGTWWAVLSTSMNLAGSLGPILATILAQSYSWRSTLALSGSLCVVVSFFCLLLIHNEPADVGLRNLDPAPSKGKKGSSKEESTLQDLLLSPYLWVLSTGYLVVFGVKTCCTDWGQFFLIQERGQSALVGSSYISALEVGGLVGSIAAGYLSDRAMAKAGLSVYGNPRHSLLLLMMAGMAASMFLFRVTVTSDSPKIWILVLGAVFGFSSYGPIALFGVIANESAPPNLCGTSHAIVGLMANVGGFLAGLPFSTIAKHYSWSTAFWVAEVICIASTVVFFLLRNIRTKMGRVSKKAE
Experimental: The action of the compounds according to the invention on the glucose-6-phosphatase system was investigated in an enzyme test in liver microsomes.
Fresh liver organs of male Wistar rats were used for the preparation of the microsome fraction containing the glucose-6-phosphatase and processed as described in the literature [Canfield, W. K. and Arion, W. J., J. Biol. Chem. 263, 7458-7460, (1988)]. This microsome fraction can be stored at -70° C. for at least 2 months without significant loss of activity.
The detection of the glucose-6-phosphatase activity was carried out as indicated in the literature (Arion, W. J. in Methods Enzymol. 174, Academic Press 1989, pages 58-67) by determination of the phosphate released from glucose-6-phosphate. 0.1 ml of test mixture contained glucose-6-phosphate (1 mmol/l), the test substance, 0.1 mg of microsome fraction and 100 mmol/l of HEPES buffer (4-(2-hydroxyethyl)piperazine-1-ethanesulfonic acid), pH 7.0. The reaction was started by addition of the enzyme. After 20 min had passed at room temperature, the reaction was stopped by addition of 0.2 ml of phosphate reagent. The sample was incubated at 37° C. for 30 min, and the absorption (A) of the blue color was then measured at 570 nm. The inhibitory activity of the test substance resulted by comparison with a control reaction, which contained no test substance, according to the formula [formula]

Structure (SMILES)	inhibitor of the glucose-6-phosphatase system (in words)
O=C(/C=C/c1ccc(O)c(O)c1)O[C@@H]1C[C@](O)(C(=O)O)C[C@@H](O)[C@H]1O [Compound 17, chlorogenic acid]	inhibitors of the glucose-6-phosphatase system

same assay, conditions: Concentration 1 × 10^-3 M; rat liver microsome fraction, glucose-6-phosphate 1 mmol/l, pH 7.0; read-out: Inhibition [%]

inhibition at 1000 µM	Structure (SMILES)
50%	O=C(/C=C/c1ccc(O)c(F)c1)O[C@@H]1C[C@](O)(C(=O)O)C[C@@H](O)[C@H]1O [Compound 10]
20%	COc1sccc1/C=C/C(=O)O[C@@H]1C[C@](O)(C(=O)O)C[C@@H](O)[C@H]1O [Compound 14]

Second part, the compound before the results:

Structure (SMILES)	inhibition at 1000 µM
O=C(/C=C/c1cccnc1)O[C@@H]1C[C@](O)(C(=O)O)C[C@@H](O)[C@H]1O [Compound 11]	20%
O=C(/C=C/c1ccc([N+](=O)[O-])cc1)O[C@@H]1C[C@](O)(C(=O)O)C[C@@H](O)[C@H]1O [Compound 16]	35%
O=C(/C=C/c1ccc(O)cc1)O[C@@H]1C[C@](O)(C(=O)O)[C@@H](O)[C@@H](O)[C@H]1O [Compound 20]	30%
O=C(/C=C/c1ccc(O)cc1)O[C@@H]1C[C@@](O)(C(=O)O)[C@H](O)[C@@H](O)[C@H]1O [Compound 20α]	10%
O=C(/C=C/c1ccc(O)cc1)O[C@@H]1C[C@H](C(=O)O)CC[C@H]1O [Compound 22]	20%
O=C(O)C[C@]1(O)C[C@@H](O)[C@@H](O)[C@H](OC(=O)/C=C/c2ccc(O)cc2)C1 [Compound 23]	30%
O=C(O)CC[C@]1(O)C[C@@H](O)[C@@H](O)[C@H](OC(=O)/C=C/c2ccc(O)cc2)C1 [Compound 24]	45%
O=C(/C=C/c1ccc(O)cc1)N[C@@H]1CC(C(=O)O)=C[C@@H](O)[C@H]1O [Compound 26]	15%
O=C(/C=C/c1ccc(O)cc1)O[C@@H]1CC(CP(=O)(O)O)=C[C@@H](O)[C@H]1O [Compound 28]	28%

same assay, conditions: pH 7

Structure (SMILES)	inhibition at 1000 µM
COP(=O)(CC1=C[C@@H](O)[C@@H](O)[C@H](OC(=O)/C=C/c2ccc(O)cc2)C1)OC [Compound 27]	15%

same assay, conditions: rat liver microsome fraction, glucose-6-phosphate 1 mmol/l, pH 7.0, 20 min room temperature; concentration at which 50 % inhibition is printed; read-out: Concentration [M] giving Inhibition 50 [%]

IC50	Structure (SMILES)
0.00031 M	O=C(/C=C/c1cccc(O)c1O)O[C@@H]1C[C@](O)(C(=O)O)C[C@@H](O)[C@H]1O [Compound 2]
0.00068 M	O=C(/C=C/c1cc(O)ccc1O)O[C@@H]1C[C@](O)(C(=O)O)C[C@@H](O)[C@H]1O [Compound 3]
0.00068 M	O=C(/C=C/c1ccc(O)cc1O)O[C@@H]1C[C@](O)(C(=O)O)C[C@@H](O)[C@H]1O [Compound 4]
0.00041 M	COc1cc(/C=C/C(=O)O[C@@H]2C[C@](O)(C(=O)O)C[C@@H](O)[C@H]2O)ccc1O [Compound 5]
0.00046 M	COc1ccc(/C=C/C(=O)O[C@@H]2C[C@](O)(C(=O)O)C[C@@H](O)[C@H]2O)cc1O [Compound 6]
0.00053 M	O=C(/C=C/c1cccc(O)c1)O[C@@H]1C[C@](O)(C(=O)O)C[C@@H](O)[C@H]1O [Compound 7]
0.00026 M	O=C(/C=C/c1ccc(O)cc1)O[C@@H]1C[C@](O)(C(=O)O)C[C@@H](O)[C@H]1O [Compound 8]
0.00048 M	O=C(/C=C/c1ccccc1O)O[C@@H]1C[C@](O)(C(=O)O)C[C@@H](O)[C@H]1O [Compound 9]
0.001 M	O=C(/C=C/c1ccc(O)c(F)c1)O[C@@H]1C[C@](O)(C(=O)O)C[C@@H](O)[C@H]1O [Compound 10]
0.00078 M	O=C(/C=C/c1ccsc1)O[C@@H]1C[C@](O)(C(=O)O)C[C@@H](O)[C@H]1O [Compound 13]
0.00023 M	O=C(/C=C/c1ccc(O)c(O)c1)O[C@@H]1C[C@](O)(C(=O)O)C[C@@H](O)[C@H]1O [Compound 17, chlorogenic acid]
0.00068 M	COc1ccc(/C=C/C(=O)O[C@@H]2C[C@](O)(C(=O)O)C[C@@H](O)[C@H]2O)cc1OC [Compound 17α]

Further lines, the compound ahead of its results:

Structure (SMILES)	IC50
O=C(/C=C/c1ccc(O)c(O)c1O)O[C@@H]1C[C@](O)(C(=O)O)C[C@@H](O)[C@H]1O [Compound 1]	0.00031 M
O=C(/C=C/c1cccs1)O[C@@H]1C[C@](O)(C(=O)O)C[C@@H](O)[C@H]1O [Compound 12]	0.00038 M
O=C(/C=C/c1c(O)ccc2ccccc12)O[C@@H]1C[C@](O)(C(=O)O)C[C@@H](O)[C@H]1O [Compound 15]	0.00046 M
O=C(O[C@@H]1C[C@](O)(C(=O)O)C[C@@H](O)[C@H]1O)c1ccc(OCc2ccccc2)cc1 [Compound 18]	0.00068 M
O=C(O[C@@H]1C[C@](O)(C(=O)O)C[C@@H](O)[C@H]1O)c1ccc(O)cc1 [Compound 19]	0.00092 M
O=C(/C=C/c1ccc(O)cc1)O[C@@H]1C[C@H](C(=O)O)C[C@@H](O)[C@H]1O [Compound 21]	0.00023 M
O=C(/C=C/c1ccc(O)cc1)O[C@@H]1CC(C(=O)O)=C[C@@H](O)[C@H]1O [Compound 25]	0.00025 M

tested on: lipoxygenase; assay: not given; conditions: M. Nishizawa et al., Chem. Pharm. Bull. 34(3), 1419 (1986); cited from earlier work

Structure (SMILES)	inhibitor of lipoxygenase (in words)
O=C(/C=C/c1ccc(O)c(O)c1)O[C@@H]1C[C@](O)(C(=O)O)C[C@@H](O)[C@H]1O [Compound 17, chlorogenic acid]	inhibitor of lipoxygenase
